Laboratory results as given in US6444615B1, “Herbicidal imidazolidinetrione and thioxo-imidazolidinediones” (Dow AgroSciences LLC, priority 2000, dated 2002).

Experiments:
Assay type in all cases: in vivo
Details in all cases: 1200 g/ha, scale of 0-100, 0 no activity, 100 total control, about two or four weeks after application
[1] = test system: Hairy Beggarticks (Bidens pilosa); assay: Herbicidal pre-emergence test, Hairy Beggarticks
Method: (§1) Listed below, a typical planting design for the test, consisting of four monocot weeds, four dicot weeds and one sedge weed. [table] For each compound, evaluation tests were carried out according to the following procedures: For preemergence tests, immediately after planting, the test compound was sprayed directly onto the soil surface. The flats or pots were placed in the greenhouse and then watered. For postemergence tests, seeds were allowed to germinate and grow for 10 to 21 days before application. The test plants were selected for uniformity, size and stage of development. The test plants were then treated with the test compound, returned to the greenhouse and watered. Untreated plants were used as a comparison. The compound to be evaluated was dissolved in an appropriate solvent, usually acetone, or a formulation of the evaluated compounds as described above, was added to the water, and sprayed over the flats or pots using a carrier volume equivalent to 187 or 468 liters per hectare to give a rate of application in grams per hectare (g/ha). About two or four weeks after application of the test compounds, the state of the plant was observed. Each species was evaluated on a scale of 0-100 in which 0 equals no activity and 100 equals total control.

[2] = test system: Hairy Beggarticks (Bidens pilosa); assay: Herbicidal post-emergence test, Hairy Beggarticks
Method: as §1

[3] = test system: Nightshade, (black) (Solanum nigrum); assay: Herbicidal pre-emergence test, Nightshade (black)
Method: as §1

[4] = test system: Nightshade, (black) (Solanum nigrum); assay: Herbicidal post-emergence test, Nightshade (black)
Method: as §1

[5] = test system: Smartweed, (pale) (Polygonum lapathifolium); assay: Herbicidal pre-emergence test, Smartweed (pale)
Method: as §1

[6] = test system: Smartweed, (pale) (Polygonum lapathifolium); assay: Herbicidal post-emergence test, Smartweed (pale)
Method: as §1

[7] = test system: Velvetleaf (Abutilon theophrasti); assay: Herbicidal pre-emergence test, Velvetleaf
Method: as §1

[8] = test system: Velvetleaf (Abutilon theophrasti); assay: Herbicidal post-emergence test, Velvetleaf
Method: as §1

[9] = test system: Barnyardgrass (Echinochloa crusgalli); assay: Herbicidal pre-emergence test, Barnyardgrass
Method: as §1

[10] = test system: Barnyardgrass (Echinochloa crusgalli); assay: Herbicidal post-emergence test, Barnyardgrass
Method: as §1

[11] = test system: Crabgrass (large) (Digitaria sanguinalis); assay: Herbicidal pre-emergence test, Crabgrass (large)
Method: as §1

[12] = test system: Crabgrass (large) (Digitaria sanguinalis); assay: Herbicidal post-emergence test, Crabgrass (large)
Method: as §1

[13] = test system: Foxtail, (green) (Setaria viridis); assay: Herbicidal pre-emergence test, Foxtail (green)
Method: as §1

[14] = test system: Foxtail, (green) (Setaria viridis); assay: Herbicidal post-emergence test, Foxtail (green)
Method: as §1

[15] = test system: Nutsedge, (yellow) (Cyperus esculentus); assay: Herbicidal pre-emergence test, Nutsedge (yellow)
Method: as §1

[16] = test system: Nutsedge, (yellow) (Cyperus esculentus); assay: Herbicidal post-emergence test, Nutsedge (yellow)
Method: as §1

[17] = test system: Perennial Ryegrass (Lolium perenne); assay: Herbicidal pre-emergence test, Perennial Ryegrass
Method: as §1

[18] = test system: Perennial Ryegrass (Lolium perenne); assay: Herbicidal post-emergence test, Perennial Ryegrass
Method: as §1

Row | SMILES | Herbicidal Activity BID (pre-emergence) [1] | Herbicidal Activity BID (post-emergence) [2] | Herbicidal Activity NS (pre-emergence) [3] | Herbicidal Activity NS (post-emergence) [4] | Herbicidal Activity SMT (pre-emergence) [5] | Herbicidal Activity SMT (post-emergence) [6] | Herbicidal Activity VEL (pre-emergence) [7] | Herbicidal Activity VEL (post-emergence) [8] | Herbicidal Activity BYG (pre-emergence) [9] | Herbicidal Activity BYG (post-emergence) [10] | Herbicidal Activity CRB (pre-emergence) [11] | Herbicidal Activity CRB (post-emergence) [12] | Herbicidal Activity FOX (pre-emergence) [13] | Herbicidal Activity FOX (post-emergence) [14] | Herbicidal Activity NUT (pre-emergence) [15] | Herbicidal Activity NUT (post-emergence) [16] | Herbicidal Activity RYE (pre-emergence) [17] | Herbicidal Activity RYE (post-emergence) [18]
1 | C#CCOc1cc(N2C(=O)C(=O)N(CCCC)C2=O)c(F)cc1Cl [Compound 14] | 0 | 95 | 0 | 100 | 0 | 60 | 0 | 100 | 0 | 30 | 0/0 | 0/0 | 0 | 40 | 0/0 | 0/0 | 0/0 | 0/0
2 | C=CCOc1cc(N2C(=O)C(=O)N(C)C2=O)c(F)cc1Cl [Compound 15] | 0 | 85 | 0 | 85 | 0 | 80 | 0 | 90 | 0 | 30 | 0 | 30 | 0 | 30 | 0/0 | 0/0 | 0/0 | 0/0
3 | C=CCOc1cc(N2C(=O)C(=O)N(CCCC)C2=O)c(F)cc1Cl [Compound 16] | 0 | 95 | 0 | 100 | 0 | 80 | 0 | 100 | 0/0 | 0/0 | 0/0 | 0/0 | 0 | 60 | 0/0 | 0/0 | 0/0 | 0/0
4 | CCOC(=O)COc1cc(N2C(=O)C(=O)N(C)C2=O)c(F)cc1Cl [Compound 17] | 0/0 | 0/0 | 30 | 0 | 30 | 0 | 0/0 | 0/0 | 0/0 | 0/0 | 0/0 | 0/0 | 0/0 | 0/0 | 0/0 | 0/0 | 30 | 0
5 | COC(=O)c1cc(N2C(=O)C(=O)N(C(C)C)C2=O)c(F)cc1Cl [Compound 18, 1-(2-fluoro-4-chloro-5-methoxycarbonylphenyl)-3-isopropyl-2,4,5-imidazolidinetrione] | 100/100 | 100/100 | 100 | 95 | 40 | 95 | 0 | 95 | 0 | 40 | 0 | 30 | 0 | 60 | 0/0 | 0/0 | 0/0 | 0/0
6 | C#CCN1C(=O)COc2cc(F)c(N3C(=O)C(=O)N(C)C3=O)cc21 [Compound 22] | 95 | 80 | 95 | 100 | 85 | 90 | 40 | 100 | 40 | 60 | 100 | 40 | 100 | 80 | 0 | 60 | 0 | 30
7 | C#CCN1C(=O)COc2cc(F)c(N3C(=O)C(=O)N(CCC)C3=O)cc21 [Compound 23, 1-n-propyl-3-[7-fluoro-4-(2-propynyl)-2ZH-1,4-benzoxazin-3(4H)-one-6-]-2,4,5-imidazlidinetrione] | 100 | 95 | 100/100 | 100/100 | 100 | 95 | 100/100 | 100/100 | 100 | 60 | 100 | 0 | 100 | 60 | 95 | 40 | 90 | 0
